# From article PMC7736581, “Activation of the IRE1 RNase through remodeling of the kinase front pocket by ATP-competitive ligands” (Nature Communications, 2020)
# Legend:
# Assay in all cases: biochemical
# Set-up in all cases: Invitrogen kinase panel: Z'Lyte activity (ATP at Km) or LanthaScreen competitive ATP-site binding, percent inhibition
# TBK1 = biological target: T1, TBK1 (Homo sapiens, UniProt Q9UHD2)
# T1 sequence (Q9UHD2 1-729): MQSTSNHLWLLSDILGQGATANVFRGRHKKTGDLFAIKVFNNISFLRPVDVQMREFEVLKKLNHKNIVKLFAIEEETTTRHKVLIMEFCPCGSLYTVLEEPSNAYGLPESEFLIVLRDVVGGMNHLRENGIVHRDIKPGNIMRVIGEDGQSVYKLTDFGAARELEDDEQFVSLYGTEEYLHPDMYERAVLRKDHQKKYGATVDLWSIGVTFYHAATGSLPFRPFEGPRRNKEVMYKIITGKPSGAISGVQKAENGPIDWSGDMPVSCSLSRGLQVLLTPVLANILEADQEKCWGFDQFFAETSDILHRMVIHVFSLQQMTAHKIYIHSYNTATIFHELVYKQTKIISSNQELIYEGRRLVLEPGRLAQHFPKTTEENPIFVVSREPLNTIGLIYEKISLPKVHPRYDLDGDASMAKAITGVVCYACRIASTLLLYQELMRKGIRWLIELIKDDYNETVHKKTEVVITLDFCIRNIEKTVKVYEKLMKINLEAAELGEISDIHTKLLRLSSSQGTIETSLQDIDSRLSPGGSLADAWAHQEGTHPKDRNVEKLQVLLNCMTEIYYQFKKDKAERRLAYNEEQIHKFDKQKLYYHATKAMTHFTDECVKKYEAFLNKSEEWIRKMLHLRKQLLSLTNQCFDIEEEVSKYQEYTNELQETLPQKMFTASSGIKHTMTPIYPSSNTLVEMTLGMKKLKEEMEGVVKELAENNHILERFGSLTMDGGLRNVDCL
# CHK1 = biological target: T2, CHK1 (Homo sapiens, UniProt O14757)
# T2 construct: gene CHEK1
# T2 sequence (O14757 1-476): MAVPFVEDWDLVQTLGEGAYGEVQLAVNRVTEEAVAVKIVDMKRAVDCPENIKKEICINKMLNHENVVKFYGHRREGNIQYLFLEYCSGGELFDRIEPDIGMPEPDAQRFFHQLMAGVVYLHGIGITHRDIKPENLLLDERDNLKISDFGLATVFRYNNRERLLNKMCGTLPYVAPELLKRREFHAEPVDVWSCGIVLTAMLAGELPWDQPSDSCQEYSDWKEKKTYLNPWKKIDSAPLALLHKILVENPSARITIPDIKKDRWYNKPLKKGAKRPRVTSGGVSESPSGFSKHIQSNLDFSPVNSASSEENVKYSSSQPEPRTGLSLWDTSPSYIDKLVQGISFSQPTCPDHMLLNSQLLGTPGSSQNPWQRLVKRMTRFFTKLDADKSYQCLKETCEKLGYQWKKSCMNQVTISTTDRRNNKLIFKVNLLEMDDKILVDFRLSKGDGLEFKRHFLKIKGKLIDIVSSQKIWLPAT
# Yes = biological target: T3, Yes (Homo sapiens, UniProt P07947)
# T3 construct: gene YES1
# T3 sequence (P07947 whole entry): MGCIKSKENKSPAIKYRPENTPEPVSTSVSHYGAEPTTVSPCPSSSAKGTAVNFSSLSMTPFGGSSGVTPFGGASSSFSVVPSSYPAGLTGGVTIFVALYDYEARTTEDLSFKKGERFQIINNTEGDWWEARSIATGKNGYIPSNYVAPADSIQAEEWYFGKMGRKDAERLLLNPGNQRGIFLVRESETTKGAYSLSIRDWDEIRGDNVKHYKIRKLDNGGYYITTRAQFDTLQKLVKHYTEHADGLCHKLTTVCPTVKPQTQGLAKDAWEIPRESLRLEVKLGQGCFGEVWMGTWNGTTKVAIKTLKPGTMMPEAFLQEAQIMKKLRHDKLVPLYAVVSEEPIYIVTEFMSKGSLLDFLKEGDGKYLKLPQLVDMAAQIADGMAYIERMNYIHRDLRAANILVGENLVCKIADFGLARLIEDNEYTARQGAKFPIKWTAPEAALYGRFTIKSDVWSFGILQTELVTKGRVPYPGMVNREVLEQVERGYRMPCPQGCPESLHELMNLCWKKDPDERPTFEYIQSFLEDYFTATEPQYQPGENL
# CDK1/cyclinB = CDK1/cyclinB (Homo sapiens, UniProt P06493)
# Chain of CDK1/cyclinB (P06493 whole entry): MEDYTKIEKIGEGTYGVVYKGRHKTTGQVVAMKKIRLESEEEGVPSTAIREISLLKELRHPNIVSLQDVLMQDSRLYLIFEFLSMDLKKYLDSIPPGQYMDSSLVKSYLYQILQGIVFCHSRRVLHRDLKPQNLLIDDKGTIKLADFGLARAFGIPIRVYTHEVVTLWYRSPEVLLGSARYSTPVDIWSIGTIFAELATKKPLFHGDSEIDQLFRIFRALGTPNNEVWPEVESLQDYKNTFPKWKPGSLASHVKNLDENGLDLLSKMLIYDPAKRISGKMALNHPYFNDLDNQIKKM
# Chain of CDK1/cyclinB (P14635 whole entry partner): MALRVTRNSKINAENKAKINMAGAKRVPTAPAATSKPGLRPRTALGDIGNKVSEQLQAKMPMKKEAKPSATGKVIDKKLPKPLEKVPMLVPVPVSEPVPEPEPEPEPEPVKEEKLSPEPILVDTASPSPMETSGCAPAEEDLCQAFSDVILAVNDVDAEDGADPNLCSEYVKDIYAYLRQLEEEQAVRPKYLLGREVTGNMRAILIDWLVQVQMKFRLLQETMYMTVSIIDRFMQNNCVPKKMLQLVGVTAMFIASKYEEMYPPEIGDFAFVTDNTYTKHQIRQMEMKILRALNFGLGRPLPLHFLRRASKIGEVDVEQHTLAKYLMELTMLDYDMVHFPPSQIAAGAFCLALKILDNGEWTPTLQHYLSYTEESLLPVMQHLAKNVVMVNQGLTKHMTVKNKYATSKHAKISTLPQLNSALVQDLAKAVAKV
# IKK_epsilon = biological target: T4, IKK_epsilon (Homo sapiens, UniProt Q14164)
# T4 construct: gene IKBKE
# T4 sequence (Q14164 1-716): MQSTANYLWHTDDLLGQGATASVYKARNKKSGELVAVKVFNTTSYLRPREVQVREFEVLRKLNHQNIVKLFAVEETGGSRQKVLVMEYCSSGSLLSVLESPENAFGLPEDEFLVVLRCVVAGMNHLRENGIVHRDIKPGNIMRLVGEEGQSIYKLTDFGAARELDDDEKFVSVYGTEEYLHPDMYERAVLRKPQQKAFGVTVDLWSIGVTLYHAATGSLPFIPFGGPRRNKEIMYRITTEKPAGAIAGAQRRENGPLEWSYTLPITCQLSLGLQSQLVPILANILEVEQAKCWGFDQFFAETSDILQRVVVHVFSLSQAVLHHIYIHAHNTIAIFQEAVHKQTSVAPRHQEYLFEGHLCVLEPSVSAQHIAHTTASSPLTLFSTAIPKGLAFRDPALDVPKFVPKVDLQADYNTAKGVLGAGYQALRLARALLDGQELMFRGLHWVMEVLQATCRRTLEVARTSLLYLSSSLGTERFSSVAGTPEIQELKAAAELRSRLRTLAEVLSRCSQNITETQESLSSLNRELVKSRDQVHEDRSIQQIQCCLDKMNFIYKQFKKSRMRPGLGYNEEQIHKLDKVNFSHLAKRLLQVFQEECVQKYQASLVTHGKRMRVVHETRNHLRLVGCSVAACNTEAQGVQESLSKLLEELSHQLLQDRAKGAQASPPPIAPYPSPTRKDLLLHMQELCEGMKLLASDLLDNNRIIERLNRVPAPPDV
# Lyn = Lyn (Homo sapiens, UniProt P07948)
# Chain of Lyn (P07948 whole entry): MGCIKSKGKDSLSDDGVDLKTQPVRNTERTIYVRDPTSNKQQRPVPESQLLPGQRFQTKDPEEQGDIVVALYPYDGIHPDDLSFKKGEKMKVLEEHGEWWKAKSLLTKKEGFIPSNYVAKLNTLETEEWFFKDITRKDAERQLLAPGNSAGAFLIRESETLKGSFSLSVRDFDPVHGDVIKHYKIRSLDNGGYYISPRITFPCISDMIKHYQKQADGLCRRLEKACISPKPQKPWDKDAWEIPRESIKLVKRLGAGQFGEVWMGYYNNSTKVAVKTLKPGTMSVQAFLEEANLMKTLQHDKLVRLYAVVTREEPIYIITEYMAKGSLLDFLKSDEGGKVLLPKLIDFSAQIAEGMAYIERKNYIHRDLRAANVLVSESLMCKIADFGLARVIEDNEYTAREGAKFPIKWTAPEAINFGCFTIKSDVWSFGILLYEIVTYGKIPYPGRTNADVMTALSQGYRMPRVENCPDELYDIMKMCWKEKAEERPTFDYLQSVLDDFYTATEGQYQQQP
# CDK2/cyclinA = CDK2/cyclinA (Homo sapiens, UniProt P24941)
# CDK5/p25 = biological target: T5, CDK5/p25 (Homo sapiens, UniProt Q00535)
# T5 construct: p25
# T5 sequence (Q00535 whole entry): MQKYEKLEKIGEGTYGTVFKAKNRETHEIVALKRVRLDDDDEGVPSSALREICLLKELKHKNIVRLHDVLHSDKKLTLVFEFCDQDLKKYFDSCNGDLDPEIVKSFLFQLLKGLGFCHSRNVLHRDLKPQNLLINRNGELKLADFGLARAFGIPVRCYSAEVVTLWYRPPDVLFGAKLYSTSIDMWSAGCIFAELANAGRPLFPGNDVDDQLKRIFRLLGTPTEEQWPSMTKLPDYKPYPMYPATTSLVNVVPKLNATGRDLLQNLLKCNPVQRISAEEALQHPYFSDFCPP
# T5 sequence (Q15078 whole entry partner): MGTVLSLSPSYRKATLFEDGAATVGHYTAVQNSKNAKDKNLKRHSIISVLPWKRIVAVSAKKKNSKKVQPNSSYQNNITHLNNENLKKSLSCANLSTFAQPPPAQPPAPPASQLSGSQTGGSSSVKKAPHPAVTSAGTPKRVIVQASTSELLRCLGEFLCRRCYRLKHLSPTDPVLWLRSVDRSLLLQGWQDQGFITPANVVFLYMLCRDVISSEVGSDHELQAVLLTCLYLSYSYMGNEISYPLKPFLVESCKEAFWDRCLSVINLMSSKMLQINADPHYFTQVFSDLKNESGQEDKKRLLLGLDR
# MLK1 = biological target: T6, MLK1 (Homo sapiens, UniProt P80192)
# T6 construct: gene MAP3K9
# T6 sequence (P80192 whole entry): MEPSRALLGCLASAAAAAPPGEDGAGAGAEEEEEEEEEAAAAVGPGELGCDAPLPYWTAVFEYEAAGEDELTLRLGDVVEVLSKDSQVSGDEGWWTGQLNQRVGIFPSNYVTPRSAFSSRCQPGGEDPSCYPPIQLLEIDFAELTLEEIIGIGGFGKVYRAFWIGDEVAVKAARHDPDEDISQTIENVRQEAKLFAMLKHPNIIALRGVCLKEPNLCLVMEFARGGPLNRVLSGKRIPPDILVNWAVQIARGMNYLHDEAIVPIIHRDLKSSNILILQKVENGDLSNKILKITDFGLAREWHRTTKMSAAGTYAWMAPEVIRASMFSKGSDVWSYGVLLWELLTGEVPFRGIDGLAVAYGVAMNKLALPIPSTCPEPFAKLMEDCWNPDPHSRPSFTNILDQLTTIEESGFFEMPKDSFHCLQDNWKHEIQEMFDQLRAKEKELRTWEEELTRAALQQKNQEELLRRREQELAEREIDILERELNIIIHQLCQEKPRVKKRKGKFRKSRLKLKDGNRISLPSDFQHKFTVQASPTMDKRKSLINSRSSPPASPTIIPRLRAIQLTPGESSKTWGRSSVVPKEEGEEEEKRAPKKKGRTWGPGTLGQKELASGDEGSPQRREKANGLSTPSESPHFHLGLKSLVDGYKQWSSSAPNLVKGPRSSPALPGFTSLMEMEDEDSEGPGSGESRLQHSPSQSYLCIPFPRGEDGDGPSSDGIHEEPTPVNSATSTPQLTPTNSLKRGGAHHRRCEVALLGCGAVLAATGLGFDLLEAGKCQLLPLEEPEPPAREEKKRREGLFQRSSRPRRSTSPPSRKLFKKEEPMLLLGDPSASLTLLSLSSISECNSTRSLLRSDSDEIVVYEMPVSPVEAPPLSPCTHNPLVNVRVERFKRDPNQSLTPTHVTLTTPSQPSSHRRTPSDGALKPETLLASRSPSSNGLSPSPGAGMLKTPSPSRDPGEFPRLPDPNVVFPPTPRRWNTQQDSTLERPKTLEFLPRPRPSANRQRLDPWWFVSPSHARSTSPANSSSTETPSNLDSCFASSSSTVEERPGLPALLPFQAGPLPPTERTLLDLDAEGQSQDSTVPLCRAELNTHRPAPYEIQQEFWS
# FGFR1 = FGFR1 (Homo sapiens, UniProt P11362)
# Chain of FGFR1 (P11362 whole entry): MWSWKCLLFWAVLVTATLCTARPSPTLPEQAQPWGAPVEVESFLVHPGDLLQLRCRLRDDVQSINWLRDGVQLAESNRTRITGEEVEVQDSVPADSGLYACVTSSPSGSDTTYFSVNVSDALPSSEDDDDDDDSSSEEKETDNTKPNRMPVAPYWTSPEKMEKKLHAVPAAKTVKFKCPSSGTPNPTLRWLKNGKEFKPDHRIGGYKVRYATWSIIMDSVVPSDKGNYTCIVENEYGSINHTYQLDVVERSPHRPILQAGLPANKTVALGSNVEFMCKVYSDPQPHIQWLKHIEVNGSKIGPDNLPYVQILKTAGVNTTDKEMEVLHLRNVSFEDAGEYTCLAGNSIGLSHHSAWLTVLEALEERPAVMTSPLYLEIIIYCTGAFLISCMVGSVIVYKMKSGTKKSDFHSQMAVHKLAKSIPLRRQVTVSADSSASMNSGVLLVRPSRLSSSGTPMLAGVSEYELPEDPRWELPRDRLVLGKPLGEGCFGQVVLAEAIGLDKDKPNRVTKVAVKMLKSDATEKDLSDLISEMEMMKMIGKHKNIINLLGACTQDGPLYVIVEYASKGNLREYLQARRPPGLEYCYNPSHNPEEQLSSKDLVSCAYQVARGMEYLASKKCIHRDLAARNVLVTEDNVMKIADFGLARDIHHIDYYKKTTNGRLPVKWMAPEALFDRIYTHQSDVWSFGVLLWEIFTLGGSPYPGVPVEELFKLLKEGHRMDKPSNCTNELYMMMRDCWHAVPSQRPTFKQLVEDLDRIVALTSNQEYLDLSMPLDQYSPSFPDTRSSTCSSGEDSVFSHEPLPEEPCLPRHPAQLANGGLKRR
SMILES,inhibition at 1 µM (TBK1) [%],inhibition at 1 µM (CHK1) [%],inhibition at 1 µM (Yes) [%],inhibition at 1 µM (CDK1/cyclinB) [%],inhibition at 1 µM (IKK_epsilon) [%],inhibition at 1 µM (Lyn) [%],inhibition at 1 µM (CDK2/cyclinA) [%],inhibition at 1 µM (CDK5/p25) [%],inhibition at 1 µM (MLK1) [%],inhibition at 1 µM (FGFR1) [%]
CCOC(=O)Nc1cccc2c(Oc3ncccc3-c3ccnc(N[C@H]4CCCNC4)n3)c(C)ccc12 [G-1749],-0.5,7.5,7.5,6.5,4,6.5,6.5,3.5,-8.5,14
CC#CC(=O)Nc1cccc2c(Oc3ncccc3-c3ccnc(N[C@H]4CCCNC4)n3)c(C)ccc12 [G-7658],0,4,8,7.5,6.5,13,6,4,-2.5,13
O=c1cc(-c2n[nH]c3ncc(-c4c(F)cccc4F)cc23)nc(N2CCC(O)CC2)[nH]1 [G-9807],95.7,94.8,52.4,96.5,86.5,87.1,100,100,98.1,83.8
